We go through six molecules from article PMC11542593, “Vascular endothelial growth factor receptor 2 as a potential host target for the inhibition of enterovirus replication” (Journal of Virology, 2024).

Counter-ions that a name gives are not always drawn.

A short description of data set [1]: in vitro. As to conditions: human. The method, then: Fig. S1. (A) RD cells were treated with the indicated concentrations of inhibitors and incubated at 37°C for 24 h. CellTiter‐Glo® luminescent cell viability assay was used to measure the CC50 of selected inhibitors. […] (B) RD cells treated with the selected inhibitors (10 μM) were inoculated with EV-A71 at an MOI of 0.01. At 48 hpi, cells were harvested to detect the expression level of VP1 by western blotting.

In data set [2] the test system is EV-A71. The data set is described as follows: Cytopathic effect (CPE) inhibition assay in RD cells. The conditions noted are these: EV-A71, RD cells; for EC50: Enterovirus A, EVA71, read-out: EC50, compound concentration required to achieve 50% protection from virus-induced cytopathogenicity. It is filed as cell-based, Human enterovirus A71. (In general: Protection from cytopathic effect is a common read-out in antiviral testing.)

Data set [3] deals with EV-A71. As to the kind of experiment: Viral load reduction assay in RD cells (RT-qPCR, TCID50, VP1 Western blot). The conditions noted are these: for EV-A71 viral load and viral titer, dose dependence: indicated noncytotoxic concentrations, MOI 0.1, 24 h; for EV-A71 viral load and viral titer in cell lysates and supernatant: 10 μM, MOI 0.01, 24 h. It is filed as cell-based, Human enterovirus A71. The method, then:
Detection of cellular mRNA expression and viral load was performed as described previously ([24]). In brief, the infected or mock-infected cells were lysed and applied to total RNA extraction by using the MiniBEST Universal RNA Extraction Kit (TaKaRa, Code No.9767). Viral RNA in the supernatant was extracted with the MiniBEST Viral RNA Extraction Kit (TaKaRa, Code No.9766). Reverse transcription was performed using the PrimeScript RT reagent Kit (TaKaRa, Code No.PR037A) with an oligo (dT) primer. The resultant cDNAs were used for qPCR assay with the Light Cycler 480 SYBR Green I Master Mix (Roche) to measure the mRNA expression level of cellular genes or viral load in supernatants. The relative viral gene copy was determined by RT-qPCR, using GAPDH as an internal reference.
The viral titer in the indicated samples was determined by TCID50 assay as described previously ([25]). Briefly, serially diluted samples from 10^−1 to 10^−8 in DMEM were inoculated to RD cells, BGMK cells, or MRC-5 in 96‐well plates. The cells were then incubated for 2 to 3 days at 37°C. TCID50 was calculated by counting the wells with cytopathic effect in infected cells using the Reed–Muench method.
(§1) Western blot analysis was performed as described previously ([26]). In brief, the indicated cell samples were lysed in RIPA buffer supplemented with protease inhibitors (Thermo Fisher Scientific, 78430). The cell lysates were then separated in 10% SDS-PAGE and transferred to a 0.45-µm nitrocellulose membrane. After blocking, the membrane was incubated with an against VP1 antibody (GeneTex, GTX132339), VEGFR1 antibody (Abcam, ab32152), VEGFR2 antibody (Abcam, ab134191), phosphorylated VEGFR2 antibody (Tyr951) (CST 4991), VEGFR3 antibody (Beyotime, AF6918), Akt antibody (CST 4685), phosphorylated Akt antibody (CST 4060), or GAPDH antibody (GeneTex, GTX627408) diluted 1:5,000 in primary antibody dilution buffer overnight at 4°C, followed by corresponding secondary staining. The blots were visualized by western horseradish peroxidase substrate and imaged with Gel Doc XR+.
The results represent cell viability in the EV-A71-infected RD cells or 2D human intestinal organoids treated with DMSO (Negative control), Pirodavir (Positive control), or indicated VEGFR inhibitor (10 µM) relative to those in mock-infected RD cells or 2D human intestinal organoids. […] Significant inhibition of EV-A71 infection was found for both cell lysate (left) and supernatant (right) using RT-qPCR analysis. The results represent the viral load in the cells treated with indicated inhibitors relative to that in DMSO-treated cells. (C) Viral titer was also determined for inhibitor-treated samples in TCID50 assays. […] (D) Representative images of immunofluorescence assay for selected inhibitors using Rabbit anti‐VP1 antibody (green). Nuclei are counterstained with DAPI (blue). Scale bar, 50 µm.
Nuclei are counterstained with DAPI (blue). Scale bar, 50 µm.
Fig. S2. […] The results represent the viral load in the cells treated with indicated concentration of VEGFR inhibitors relative to that in DMSO-treated cells. Viral titer was also determined for samples treated with indicated concentrations of VEGFR inhibitors in TCID50 assays.
Fig. S7. Viral reduction in RD cells with Src inhibitor treatment. […] Significant inhibition of EV-A71 infection was found for both cell lysate (left) and supernatant (middle) using RT-qPCR analysis. The results represent the viral load in the cells treated with Dasatinib relative to that in DMSO-treated cells. Viral titer was also determined for inhibitor-treated samples in TCID50 assays (right). […] (C) VP1 protein levels were measured for samples treated with DMSO or Dasatinib using western blotting.
Fig. S8. Viral reduction in RD cells with Akt inhibitor treatment. […] Significant inhibition of EV-A71 infection was found for both cell lysate (left) and supernatant (middle) using RT-qPCR analysis. […]

The test system of data set [4] is Akt phosphorylation. The data set is described as follows: Western blot of phosphorylated Akt and total Akt in RD cells. It is filed as cell-based. The conditions noted are these: total Akt levels unaltered. The method, then: as §1
Fig. S8. Viral reduction in RD cells with Akt inhibitor treatment. […] Significant inhibition of EV-A71 infection was found for both cell lysate (left) and supernatant (middle) using RT-qPCR analysis. The results represent the viral load in the cells treated with MK-2206 relative to that in DMSO-treated cells. Viral titer was also determined for inhibitor-treated samples in TCID50 assays (right). […] (C) The levels of VP1, phosphorylated Akt and total Akt protein were measured for samples treated with DMSO or MK-2206 using western blotting.
Fig. S9. […] (A) RD cells were infected with EV-A71 at an MOI of 1, and cell lysates were collected at the indicated times. Western blotting assays were then performed to assess the levels of phosphorylated Akt and total Akt. (B)The plasmids pVEGFR2 or pEmpty vector were transfected into RD cells. At the indicated times post-transfection, cells were harvested to detect the expression levels of phosphorylated Akt and total Akt by western blotting. […] Western blotting assays were then performed to assess the levels of phosphorylated Akt and total Akt. […] At 1 hpi, cells were harvested to detect the expression levels of phosphorylated Akt and total Akt by western blotting. […]
A general note: A western blot detects proteins with antibodies after separation by electrophoresis.

In the case of `CCOC(=O)c1ccc(OCCC2CCN(c3ccc(C)nn3)CC2)cc1` [Pirodavir], the CC50 at 24 h in data set [1] came to 52.9 ± 1.25 µM. Further, in data set [2], the “SI (selectivity index), ratio CC50/EC50” value came out at 120.14 and the EC50 is 0.44 ± 0.08 µM.
Regarding `Cc1[nH]c(/C=C2\C(=O)Nc3ccc(F)cc32)c(C)c1C(=O)NC[C@H](O)CN1CCOCC1` [SU14813], the CC50 at 24 h in data set [1] (RD cells) was found to be 26.4 ± 6.09 µM. In data set [2], the “SI (selectivity index), ratio CC50/EC50” value turned out to be 15.23 and the EC50 amounted to 1.73 ± 0.18 µM. In addition, the “EV-A71 viral load and viral titer, dose dependence” value in data set [3] is “dose-dependent inhibition”.
Molecule `Cc1cc2c(F)c(Oc3ncnn4cc(OC[C@@H](C)O)c(C)c34)ccc2[nH]1` [Brivanib] yielded a CC50 at 24 h in data set [1] of 41.3 ± 2.83 µM. In addition, in data set [2], the “SI (selectivity index), ratio CC50/EC50” value was determined as 21.28 and the EC50 is 1.94 ± 0.33 µM. Moreover, the “EV-A71 viral load and viral titer, dose dependence” value in data set [3] is reported as “dose-dependent inhibition”.
In data set [1] (RD cells), `CNC(=O)c1ccccc1Sc1ccc2c(/C=C/c3ccccn3)n[nH]c2c1` [Axitinib] came in with a CC50 at 24 h of 104 ± 17.6 µM. In data set [3], the “EV-A71 viral load and viral titer, dose dependence” value is “dose-dependent inhibition”.
For `Cc1nc(Nc2ncc(C(=O)Nc3c(C)cccc3Cl)s2)cc(N2CCN(CCO)CC2)n1` [Dasatinib], the “EV-A71 viral load and viral titer in cell lysates and supernatant” value in data set [3] is given as “significantly reduced”. The “EV-A71 structural protein VP1 expression (Western blot)” value in data set [3] (vs DMSO) is “markedly decreased”.
Turning to `NC1(c2ccc(-c3nc4ccn5c(=O)[nH]nc5c4cc3-c3ccccc3)cc2)CCC1` [MK-2206, MK-2206 dihydrochloride], in data set [3], the “EV-A71 viral load and viral titer in cell lysates and supernatant” value is listed as “significantly suppressed”. In addition, the “Akt phosphorylation following EV-A71 infection” value in data set [4] is “significantly inhibited Akt phosphorylation”.
